Laboratory results reported in patent EP2058315A1, “1H-Furo[3,2-C]Pyrazoles active as aurora kinase inhibitors” (Nerviano Medical Sciences S.r.l., priority 2007, dated 2009).
Like-named read-outs stand apart in the source and are kept apart here.

Key:
Aurora-2 = target: T1, Aurora-2 (Homo sapiens, UniProt O14965); assay: Inhibition assay of Aurora-2 activity (SPA technology); assay type: biochemical
T1 sequence (O14965 1-403): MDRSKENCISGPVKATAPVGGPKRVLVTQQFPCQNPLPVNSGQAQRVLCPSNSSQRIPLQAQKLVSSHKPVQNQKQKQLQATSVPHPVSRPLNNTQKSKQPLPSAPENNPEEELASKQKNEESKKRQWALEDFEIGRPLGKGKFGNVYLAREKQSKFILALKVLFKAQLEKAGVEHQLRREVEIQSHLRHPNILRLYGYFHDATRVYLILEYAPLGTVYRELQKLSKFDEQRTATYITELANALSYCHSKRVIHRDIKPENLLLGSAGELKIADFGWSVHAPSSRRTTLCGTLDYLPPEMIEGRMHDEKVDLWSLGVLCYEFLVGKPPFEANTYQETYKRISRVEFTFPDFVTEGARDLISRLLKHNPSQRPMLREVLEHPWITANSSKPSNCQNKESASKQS
Experimental: The inhibiting activity and the potency of selected compounds is determined through a method of assay based on the use of the SPA technology (Amersham Pharmacia Biotech).
The assay consists of the transfer of radioactivity labelled phosphate moiety by the kinase to a biotinylated substrate. The resulting 33P-labelled biotinylated product is allowed to bind to streptavidin-coated SPA beads (biotin capacity 130 pmol/mg), and light emitted was measured in a scintillation counter.
Kinase reaction: 8 µM biotinylated peptide (4 repeats of LRRWSLG, commercially available from Sigma, catalogue no. L-3523), 10 µM ATP (0.5 uCi P^33γ-ATP), 7.5 ng Aurora 2, inhibitor in a final volume of 30 µl buffer (HEPES 50 mM pH 7.0, MgCl2 10 mM, 1 mM DTT, 0.2 mg/mL BSA, 3 µM orthovanadate) were added to each well of a 96 U bottom well plate. After 60 minutes at room temperature incubation, the reaction was stopped and biotinylated peptide captured by adding 100 µl of bead suspension.
Stratification: 100 µl of CsCl 5 M were added to each well and stood for 4 hours before radioactivity was counted in the Top-Count instrument.
IC50 determination: inhibitors were tested at different concentrations ranging from 0.0015 to 10 µM. Experimental data were analyzed by the computer program GraphPad Prizm using the four parameter logistic equation: y = bottom+(top-bottom)/(1+10^((logIC50-x)*slope)) where x is the logarithm of the inhibitor concentration, y is the response; y starts at bottom and goes to top with a sigmoid shape. Ki calculation: Experimental method: Reaction was carried out in buffer (10 mM Tris, pH 7.5, 10 mM MgCl2, 0.2 mg/mL BSA, 7.5 mM DTT) containing 3.7 nM enzyme, histone and ATP (constant ratio of cold/labeled ATP 1/3000). The reaction was stopped with EDTA and the substrate captured on phosphomembrane (Multiscreen 96 well plates from Millipore). After extensive washing, the multiscreen plates were read on a top counter. Control (time zero) for each ATP and histone concentrations was measured.

[1] = test system: human colon cancer cell line HCT-116; assay: In vitro cell proliferation assay; assay type: cell-based; settings: HCT-116, 72 hours of treatment, cell count, read-out: Cell Antiproliferation (HCT-116) IC50
Experimental: The human colon cancer cell line HCT-116 was seeded at 5000 cells/cm^2 in 24 wells plate (Costar) using F12 medium (Gibco) supplemented with 10% FCS (EuroClone, Italy) 2 mM L-glutamine and 1% penicillin/streptomycin and maintained at 37°C, 5% CO2 and 96% relative humidity. The following day, plates were treated in duplicates with 5ul of an appropriate dilution of compounds starting from a 10 mM stock in DMSO. Two untreated control wells were included in each plate. After 72 hours of treatment, medium was withdrawn and cells detached from each well using 0.5 mL of 0.05% (w/v) Trypsin, 0,02% (w/v) EDTA (Gibco). Samples were diluted with 9.5 mL of Isoton (Coulter) and counted using a Multisizer 3 cell counter (Beckman Coulter). Data were evaluated as percent of the control wells: % of CTR = (Treated - Blank)/(Control - Blank).
IC50 values were calculated by LSW/Data Analysis using Microsoft Excel sigmoidal curve fitting. […] See, as an example, the following Table 1 reporting the experimental data of some representative compounds of the invention being tested as Aurora-2 kinase inhibitors (IC50 nM) and for their cell antiproliferative effect (IC50 nM), namely: • Compound (1) is 3-[(Thiophene-2-carbonyl)-amino]-1H-furo[3,2-c]pyrazole-5-carboxylic acid (1-methyl-1-phenyl-ethyl)-amide; • Compound (2) is 3-(4-Morpholin-4-ylmethyl-benzoylamino)-1H-furo[3,2-c]pyrazole-5-carboxylic acid[1-(2-fluoro-phenyl)-1-methyl-ethyl]-amide • Compound (3) is 3-[4-(4-Methyl-piperazin-1-yl)-benzoylamino]-1H-furo[3,2-c]pyrazole-5-carboxylic acid (1-phenyl-cyclopropyl)-amide Table 1

[2] = 10 µM ATP, 60 minutes at room temperature, SPA, read-out: Aurora-2 inhibition IC50
[3] = screened according to the methods of the pharmacology section, read-out: IC50values for Aur2 inhibition

Row | IC50 (Aurora-2; [2]) [nM] | IC50 (Aurora-2; [3]) [nM] | IC50 [1] [nM] | IC50 ([1]; Homo sapiens, HCT-116, 72 h) [nM] | Structure (SMILES)
1 | 3 | < 10 | 10 |  | CC(C)(NC(=O)c1cc2[nH]nc(NC(=O)c3cccs3)c2o1)c1ccccc1 [Compound 1, 3-[(Thiophene-2-carbonyl)-amino]-1H-furo[3,2-c]pyrazole-5-carboxylic acid (1-methyl-1-phenyl-ethyl)-amide]
2 | 1 | < 10 | 2 | 4 to 10 | CC(C)(NC(=O)c1cc2[nH]nc(NC(=O)c3ccc(CN4CCOCC4)cc3)c2o1)c1ccccc1F [Compound 2, 3-(4-Morpholin-4-ylmethyl-benzoylamino)-1H-furo[3,2-c]pyrazole-5-carboxylic acid[1-(2-fluoro-phenyl)-1-methyl-ethyl]-amide]
3 | 4 | < 10 | 4 | 4 to 10 | CN1CCN(c2ccc(C(=O)Nc3n[nH]c4cc(C(=O)NC5(c6ccccc6)CC5)oc34)cc2)CC1 [Compound 3, 3-[4-(4-Methyl-piperazin-1-yl)-benzoylamino]-1H-furo[3,2-c]pyrazole-5-carboxylic acid (1-phenyl-cyclopropyl)-amide]
4 |  | < 10 |  |  | CC(C)(NC(=O)c1cc2[nH]nc(NC(=O)c3cccs3)c2o1)c1ccccc1F [Compound 57, N-[1-(2-fluorophenyl)-1-methylethyl]-3-[(2-thienylcarbonyl)amino]-1H-furo[3,2-c]pyrazole-5-carboxamide]
5 |  | < 10 |  |  | CC(C)(NC(=O)c1cc2[nH]nc(NC(=O)c3cccs3)c2o1)c1ccc(F)cc1F [Compound 58, N-[1-(2,4-difluorophenyl)-1-methylethyl]-3-[(2-thienylcarbonyl)amino]-1H-furo[3,2-c]pyrazole-5-carboxamide]
6 |  | < 10 |  |  | CC(C)(NC(=O)c1cc2[nH]nc(NC(=O)c3ccc(CN4CCCCC4)cc3)c2o1)c1ccccc1 [Compound 59, N-(1-methyl-1-phenylethyl)-3-{[4-(piperidin-1-ylmethyl)benzoyl]amino}-1H-furo[3,2-c]pyrazole-5-carboxamide]
7 |  | < 10 |  |  | CN1CCN(Cc2ccc(C(=O)Nc3n[nH]c4cc(C(=O)NC(C)(C)c5ccccc5F)oc34)cc2)CC1 [Compound 60, N-[1-(2-fluorophenyl)-1-methylethyl]-3-({4-[(4-methylpiperazin-1-yl)methyl]benzoyl}amino)-1H-furo[3,2-c]pyrazole-5-carboxamide]
8 |  | < 10 |  |  | CC(C)(NC(=O)c1cc2[nH]nc(NC(=O)c3ccoc3)c2o1)c1ccccc1 [Compound 62, 3-(3-furoylamino)-N-(1-methyl-1-phenylethyl)-1H-furo[3,2-c]pyrazole-5-carboxamide]
9 |  | < 10 |  |  | CC(C)(NC(=O)c1cc2[nH]nc(NC(=O)c3ccsc3)c2o1)c1ccccc1 [Compound 63, N-(1-methyl-1-phenylethyl)-3-[(3-thienylcarbonyl)amino]-1H-furo[3,2-c]pyrazole-5-carboxamide]
10 |  | < 10 |  |  | CC(C)(NC(=O)c1cc2[nH]nc(NC(=O)c3cscn3)c2o1)c1ccccc1 [Compound 64, N-(1-methyl-1-phenylethyl)-3-[(1,3-thiazol-4-ylcarbonyl)amino]-1H-furo[3,2-c]pyrazole-5-carboxamide]
11 |  | < 10 |  |  | CN1CCN(c2ccc(C(=O)Nc3n[nH]c4cc(C(=O)NC(C)(C)c5ccccc5F)oc34)cc2)CC1 [Compound 67, N-[1-(2-fluorophenyl)-1-methylethyl]-3-{[4-(4-methylpiperazin-1-yl)benzoyl]amino}-1H-furo[3,2-c]pyrazole-5-carboxamide]
12 |  | < 10 |  |  | CC(C)(NC(=O)c1cc2[nH]nc(NC(=O)c3ccc(OCCN4CCCC4)cc3)c2o1)c1ccccc1 [Compound 68, N-(1-methyl-1-phenylethyl)-3-{[4-(2-pyrrolidin-1-ylethoxy)benzoyl]amino}-1H-furo[3,2-c]pyrazole-5-carboxamide]
13 |  | < 10 |  |  | CC(C)(NC(=O)c1cc2[nH]nc(NC(=O)c3ccc(OCCN4CCCC4)cc3)c2o1)c1ccccc1F [Compound 69, N-[1-(2-fluorophenyl)-1-methylethyl]-3-{[4-(2-pyrrolidin-1-ylethoxy)benzoyl]amino}-1H-furo[3,2-c]pyrazole-5-carboxamide]
14 |  | < 10 |  |  | CC(C)NCc1ccc(C(=O)Nc2n[nH]c3cc(C(=O)NC(C)(C)c4ccccc4)oc23)cc1 [Compound 70, 3-({4-[(isopropylamino)methyl]benzoyl}amino)-N-(1-methyl-1-phenylethyl)-1H-furo[3,2-c]pyrazole-5-carboxamide]
15 |  | < 10 |  |  | CC(C)(NC(=O)c1cc2[nH]nc(NC(=O)c3ccccc3)c2o1)c1ccccc1 [Compound 71, 3-(benzoylamino)-N-(1-methyl-1-phenylethyl)-1H-furo[3,2-c]pyrazole-5-carboxamide]
16 |  | < 10 |  |  | CC(C)(NC(=O)c1cc2[nH]nc(NC(=O)c3ccccc3)c2o1)c1ccccc1F [Compound 72, 3-(benzoylamino)-N-[1-(2-fluorophenyl)-1-methylethyl]-1H-furo[3,2-c]pyrazole-5-carboxamide]
17 |  | < 10 |  |  | CC(C)(NC(=O)c1cc2[nH]nc(NC(=O)c3ccc(CN4CCCC4)cc3)c2o1)c1ccccc1F [Compound 73, N-[1-(2-fluorophenyl)-1-methylethyl]-3-{[4-(pyrrolidin-1-ylmethyl)benzoyl]amino}-1H-furo[3,2-c]pyrazole-5-carboxamide]
18 |  | < 10 |  |  | CC(C)(NC(=O)c1cc2[nH]nc(NC(=O)c3ccc(CN4CCCCC4)cc3)c2o1)c1ccccc1F [Compound 74, N-[1-(2-fluorophenyl)-1-methylethyl]-3-{[4-(piperidin-1-ylmethyl)benzoyl]amino}-1H-furo[3,2-c]pyrazole-5-carboxamide]
19 |  | < 10 |  |  | CC(C)(NC(=O)c1cc2[nH]nc(NC(=O)c3ccc(N4CCOCC4)cc3)c2o1)c1ccccc1 [Compound 75, N-(1-methyl-1-phenylethyl)-3-[(4-morpholin-4-ylbenzoyl)amino]-1H-furo[3,2-c]pyrazole-5-carboxamide]
